From publication PMC9987750, “Potent carbonic anhydrase I, II, IX and XII inhibition activity of novel primary benzenesulfonamides incorporating bis-ureido moieties” (Journal of Enzyme Inhibition and Medicinal Chemistry, 2023)

Experiments:
hCA I = target: T1, hCA I (Homo sapiens, UniProt P00915); assay: stopped flow CO2 hydrase assay, CA inhibition; format: biochemical; settings: recombinant enzyme, pH 7.4, 10 min pre-incubation, from 3 different assays
T1 construct: made in house
Protocol: (§1) An SX.18 MV-R Applied Photophysics (Oxford, UK) stopped-flow instrument has been used to assay the catalytic/inhibition of various CA isozymes. […] Stock solutions of inhibitors were prepared at a concentration of 10 mM (in DMSO-water 1:1, v/v) and dilutions up to 0.01 nM done with the assay buffer mentioned above. […] Inhibitor and enzyme solutions were pre-incubated together for 10 min at room temperature prior to assay, in order to allow for the formation of the E-I complex. […] The inhibition constants were obtained by nonlinear least-squares methods using the Cheng-Prusoff equation, as reported earlier, and represent the mean from at least three different determinations.

hCA II = target: T2, hCA II (Homo sapiens, UniProt P00918); assay: stopped flow CO2 hydrase assay, CA inhibition; format: biochemical; settings: recombinant enzyme, pH 7.4, 10 min pre-incubation, from 3 different assays
T2 construct: made in house
Protocol: as §1

hCA IX = target: T3, hCA IX (Homo sapiens, UniProt Q16790); assay: stopped flow CO2 hydrase assay, CA inhibition; format: biochemical; settings: recombinant enzyme, pH 7.4, 10 min pre-incubation, from 3 different assays
T3 construct: made in house
Protocol: as §1

hCA XII = target: T4, hCA XII (Homo sapiens, UniProt O43570); assay: stopped flow CO2 hydrase assay, CA inhibition; format: biochemical; settings: recombinant enzyme, pH 7.4, 10 min pre-incubation, from 3 different assays
T4 construct: made in house
T4 sequence (O43570 25-354): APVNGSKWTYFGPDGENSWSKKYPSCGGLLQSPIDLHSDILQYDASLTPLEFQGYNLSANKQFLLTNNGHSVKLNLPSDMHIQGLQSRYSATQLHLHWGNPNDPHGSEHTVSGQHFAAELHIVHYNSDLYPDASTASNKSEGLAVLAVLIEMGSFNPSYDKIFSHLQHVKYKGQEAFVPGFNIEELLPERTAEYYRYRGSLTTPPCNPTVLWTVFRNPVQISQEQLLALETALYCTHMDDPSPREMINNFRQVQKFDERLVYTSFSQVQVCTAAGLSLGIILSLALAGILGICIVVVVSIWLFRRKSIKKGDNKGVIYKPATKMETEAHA
Protocol: as §1

T1 sequence (P00915 whole entry): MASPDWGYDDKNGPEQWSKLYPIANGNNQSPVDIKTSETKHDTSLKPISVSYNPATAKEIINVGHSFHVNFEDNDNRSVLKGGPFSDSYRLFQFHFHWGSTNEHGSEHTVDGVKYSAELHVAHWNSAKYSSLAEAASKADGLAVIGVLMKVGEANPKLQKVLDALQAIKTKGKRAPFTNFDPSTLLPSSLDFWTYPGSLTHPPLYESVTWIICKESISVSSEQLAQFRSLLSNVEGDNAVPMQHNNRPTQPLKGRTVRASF

Structure (SMILES)	Ki (hCA I)	Ki (hCA II)	Ki (hCA IX)	Ki (hCA XII)	melting point
Cc1ccc(NC(=O)Nc2ccc(S(N)(=O)=O)cc2)cc1NC(=O)Nc1ccc(S(N)(=O)=O)cc1 [Compound 11, 4,4'-((((4-Methyl-1,3-phenylene)bis(azanediyl))bis(carbonyl))bis(azanediyl))dibenzenesulfonamide]	68.1 nM	4.4 nM	6.73 nM	7.39 nM	279 to 281 °C
Cc1ccc(NC(=O)NCCc2ccc(S(N)(=O)=O)cc2)cc1NC(=O)NCCc1ccc(S(N)(=O)=O)cc1 [Compound 19, 4,4'-(((((4-Methyl-1,3-phenylene)bis(azanediyl))bis(carbonyl))bis(azanediyl))bis(ethane-2,1-diyl))dibenzenesulfonamide]	95.4 nM	25.8 nM	8.92 nM	5.02 nM	245 to 247 °C
Cc1ccc(NC(=O)Nc2cccc(S(N)(=O)=O)c2)cc1NC(=O)Nc1cccc(S(N)(=O)=O)c1 [Compound 15, 3,3'-((((4-Methyl-1,3-phenylene)bis(azanediyl))bis(carbonyl))bis(azanediyl))dibenzenesulfonamide]	5000 nM	80.8 nM	81.1 nM	67.1 nM	233 to 234 °C
Cc1cc(-c2ccc(NC(=O)Nc3cccc(S(N)(=O)=O)c3)c(C)c2)ccc1NC(=O)Nc1cccc(S(N)(=O)=O)c1 [Compound 14, 3,3'-((((3,3'-Dimethyl-[1,1'-biphenyl]-4,4'-diyl)bis(azanediyl))bis(carbonyl))bis(azanediyl))dibenzenesulfonamide]	688 nM	637 nM	578 nM	67.9 nM	> 300 °C
Cc1cc(-c2ccc(NC(=O)Nc3ccc(S(N)(=O)=O)cc3)c(C)c2)ccc1NC(=O)Nc1ccc(S(N)(=O)=O)cc1 [Compound 10, 4,4'-((((3,3'-Dimethyl-[1,1'-biphenyl]-4,4'-diyl)bis(azanediyl))bis(carbonyl))bis(azanediyl))dibenzenesulfonamide]	947 nM	302 nM	86.4 nM	52.3 nM	> 300 °C
NS(=O)(=O)c1ccc(NC(=O)Nc2ccc(Cc3ccc(NC(=O)Nc4ccc(S(N)(=O)=O)cc4)cc3)cc2)cc1 [Compound 9, 4,4'-((((Methylenebis(4,1-phenylene))bis(azanediyl))bis(carbonyl))bis(azanediyl))dibenzenesulfonamide]	6280 nM	484 nM	835 nM	429 nM	293 to 294 °C
NS(=O)(=O)c1ccc(CCNC(=O)Nc2ccc(NC(=O)NCCc3ccc(S(N)(=O)=O)cc3)cc2)cc1 [Compound 16, 4,4'-((((1,4-Phenylenebis(azanediyl))bis(carbonyl))bis(azanediyl))bis(ethane-2,1-diyl))dibenzenesulfonamide]	2910 nM	424 nM	68.7 nM	82.8 nM	> 300 °C
NS(=O)(=O)c1ccc(CCNC(=O)Nc2ccc(Cc3ccc(NC(=O)NCCc4ccc(S(N)(=O)=O)cc4)cc3)cc2)cc1 [Compound 17, 4,4'-(((((Methylenebis(4,1-phenylene))bis(azanediyl))bis(carbonyl))bis(azanediyl))bis(ethane-2,1-diyl))dibenzenesulfonamide]	5350 nM	792 nM	91.9 nM	33.6 nM	270 to 272 °C
NS(=O)(=O)c1cccc(NC(=O)Nc2ccc(Cc3ccc(NC(=O)Nc4cccc(S(N)(=O)=O)c4)cc3)cc2)c1 [Compound 13, 3,3'-((((Methylenebis(4,1-phenylene))bis(azanediyl))bis(carbonyl))bis(azanediyl))dibenzenesulfonamide]	9170 nM	306 nM	78.7 nM	27.7 nM	293 to 295 °C
Cc1cc(-c2ccc(NC(=O)NCCc3ccc(S(N)(=O)=O)cc3)c(C)c2)ccc1NC(=O)NCCc1ccc(S(N)(=O)=O)cc1 [Compound 18, 4,4'-(((((3,3'-Dimethyl-[1,1'-biphenyl]-4,4'-diyl)bis(azanediyl))bis(carbonyl))bis(azanediyl))bis(ethane-2,1-diyl))dibenzenesulfonamide]	8310 nM	604 nM	93.7 nM	60.3 nM	> 300 °C
NS(=O)(=O)c1cccc(NC(=O)Nc2ccc(NC(=O)Nc3cccc(S(N)(=O)=O)c3)cc2)c1 [Compound 12, 3,3'-(((1,4-Phenylenebis(azanediyl))bis(carbonyl))bis(azanediyl))dibenzenesulfonamide]	6520 nM	550 nM	63.8 nM	63.2 nM	> 300 °C
NS(=O)(=O)c1ccc(NC(=O)Nc2ccc(NC(=O)Nc3ccc(S(N)(=O)=O)cc3)cc2)cc1 [Compound 8, 4,4'-(((1,4-Phenylenebis(azanediyl))bis(carbonyl))bis(azanediyl))dibenzenesulfonamide]	7280 nM	680 nM	57.5 nM	37.3 nM	> 300 °C
